Assay [1] concerns the target CDK7/cyclin H/MAT1 complex (Homo sapiens (Human), UniProt P50613). Kind of assay: In vitro enzymatic inhibitory activity test, CDK7. The assay is classed as biochemical. As to conditions: Caliper mobility shift, 180 min at 27° C. As for the experimental part:
(§1) CDK7/CyclinH was diluted in a test buffer solution (20 mM MES PH6.75, 0.01% Tween20, 50 ug/mL BSA, 6 mM MgCl2) to obtain a corresponding enzyme solution with a 2.4× concentration. CDK2/CyclinE1 was diluted in a test buffer solution (20 mM MES PH6.75, 0.01% Tween20, 50 ug/mL BSA, 6 mM MgCl2) to obtain a corresponding enzyme solution with a 2.4× concentration. CDK9/CyclinT1 was diluted in a test buffer solution (20 mM MES PH6.75, 0.01% Tween20, 50 ug/mL BSA, 10 mM MgCl2) to obtain a corresponding enzyme solution with a 2.4× concentration. CDK12/CyclinK was diluted in a test buffer solution (80 mM MES PH6.5, 0.01% Tween20, 50 ug/mL BSA, 10 mM MgCl2) to obtain a corresponding enzyme solution with a 2.4× concentration. The compounds were dissolved in dimethyl sulfoxide (DMSO) at a concentration of 10 mM. […] 2 ul of a test compound solution was mixed with 5 ul of enzyme solution. After incubating for 10 min, 5 ul of the mixed solution of the polypeptide substrate and ATP was added. After incubating at 27° C. for 180 min, 4 uL of EDTA with a 120 mM concentration was added to each sample to stop the reaction. […] A CDK9/cyclin TI complex (8 nM) and a “5-FAM-CDK9tide” peptide substrate (2 μM, synthetic fluorophore labeled peptide having the following sequence: 5-FAM-GSRTPMY-NH2, where 5-FAM was as defined above, and NH2 represented C-terminal amide) were used for testing the CDK9 inhibition. […] A CDK2/cyclin E1 complex (0.5 nM) and the “5-FAM-CDK7tide” (2 μM) as defined above were used for testing the CDK2 inhibition.
(§2) Electrophoretic separation was performed on Caliper EZ Reader II by means of a fluorogenic substrate and a phosphorylated product to analyze the reaction mixture. Data were calculated by using GraphPad Prism version 6.0. IC50 values were adjusted by means of a nonlinear regression model using a dose-response curve.

Another assay addresses CDK9/CyclinT1 (Homo sapiens (Human), UniProt P50750). Kind of assay: In vitro enzymatic inhibitory activity test, CDK9. It counts as biochemical. As to conditions: Caliper mobility shift, 180 min at 27° C. The method, then:
as §1, §2

A further assay deals with CDK2/cyclin E1 complex (Homo sapiens (Human), UniProt P24941). Briefly: In vitro enzymatic inhibitory activity test, CDK2. As to conditions: Caliper mobility shift, 180 min at 27° C. The assay is classed as biochemical. As for the experimental part:
CDK7/CyclinH was diluted in a test buffer solution (20 mM MES PH6.75, 0.01% Tween20, 50 ug/mL BSA, 6 mM MgCl2) to obtain a corresponding enzyme solution with a 2.4× concentration. CDK2/CyclinE1 was diluted in a test buffer solution (20 mM MES PH6.75, 0.01% Tween20, 50 ug/mL BSA, 6 mM MgCl2) to obtain a corresponding enzyme solution with a 2.4× concentration. CDK9/CyclinT1 was diluted in a test buffer solution (20 mM MES PH6.75, 0.01% Tween20, 50 ug/mL BSA, 10 mM MgCl2) to obtain a corresponding enzyme solution with a 2.4× concentration. CDK12/CyclinK was diluted in a test buffer solution (80 mM MES PH6.5, 0.01% Tween20, 50 ug/mL BSA, 10 mM MgCl2) to obtain a corresponding enzyme solution with a 2.4× concentration. […] 2 ul of a test compound solution was mixed with 5 ul of enzyme solution. After incubating for 10 min, 5 ul of the mixed solution of the polypeptide substrate and ATP was added. After incubating at 27° C. for 180 min, 4 uL of EDTA with a 120 mM concentration was added to each sample to stop the reaction. […] A CDK9/cyclin TI complex (8 nM) and a “5-FAM-CDK9tide” peptide substrate (2 μM, synthetic fluorophore labeled peptide having the following sequence: 5-FAM-GSRTPMY-NH2, where 5-FAM was as defined above, and NH2 represented C-terminal amide) were used for testing the CDK9 inhibition. […] A CDK2/cyclin E1 complex (0.5 nM) and the “5-FAM-CDK7tide” (2 μM) as defined above were used for testing the CDK2 inhibition.
as §2

A further assay deals with HCC70 cells. Kind of assay: Cell bioactivity detection (CyQuant), HCC70. As to conditions: human breast cancer cells HCC70, 72 hours. The assay is classed as cell-based. As for the experimental part: (§3) Trypsinization was performed on A2780 and HCC70 cells. Cell suspensions were respectively transferred to 15 mL of centrifuge tubes and centrifuged at 800 rpm for 5 min. The supernatant was discarded. Resuspension in a fresh culture medium (RPMI 1640+10% FBS) was performed. After counting, the cells were inoculated at 2000/well in a 384-well plate (50 φL of 1640+10% FBS culture medium was added to the 2nd line and the 23rd line of the 384-well plate, and 50 μL of DPBS was added to surrounding wells). Incubation in an incubator (37° C., 5% CO2) was performed overnight.
(§4) The compound was added to the well plate the next day. The compound had the highest concentration of 10 μM and was diluted at the ratio of 1:4 to form 9 concentrations. The positive compound Paclitaxel had the highest concentration of 1 μM and was diluted at the ratio of 1:3 to form 9 concentrations. The DMSO content of each well was unified to 0.2%. A cell plate was centrifuged at 800 rpm for 30 seconds. Incubation for 72 hours in an incubator (37° C., 5% CO2) was performed. On the fourth day, a Cyquant reagent (3×) was prepared according to kit instructions. Each 384-well plate was prepared in the following proportions: DPBS: 11.568 mL, CyQuant® Direct nucleic acid stain: 72 μL, CyQuant® Direct background suppressor: 360 ILL. The plates were uniformly mixed and placed for standby application at room temperature. The cell plate was taken out and placed at room temperature to be balanced for 30 min. 25 μL of Cyquant reagent (3×) was dispensed to the cells in each well of the 384-well plates by using a Multi-drop dispenser. Incubation at 37° C. for 60 or more minutes was performed. The plates were read by Acumen (Acumen was configured to have a 488 nm excitation wavelength). IC50 results were analyzed by XLFIT5 of the IDBS company.

For the next assay, the system named is A2780 cells. Briefly: Cell bioactivity detection (CyQuant), A2780. It counts as cell-based, human. As to conditions: ovarian carcinoma cells A2780, 72 hours. As for the experimental part:
as §3, §4

The target of assay [2] is CDK12(aa686-1082)/cyclin K complex (Homo sapiens (Human), UniProt Q9NYV4). Briefly: In vitro enzymatic inhibitory activity test, CDK12. The assay is classed as biochemical. As to conditions: Caliper mobility shift, 180 min at 27° C. As for the experimental part: as §1, §2

Structures can show the parent of a compound that is named as a salt.

Sequence of CDK7/cyclin H/MAT1 complex (P50613 whole entry, species assumed): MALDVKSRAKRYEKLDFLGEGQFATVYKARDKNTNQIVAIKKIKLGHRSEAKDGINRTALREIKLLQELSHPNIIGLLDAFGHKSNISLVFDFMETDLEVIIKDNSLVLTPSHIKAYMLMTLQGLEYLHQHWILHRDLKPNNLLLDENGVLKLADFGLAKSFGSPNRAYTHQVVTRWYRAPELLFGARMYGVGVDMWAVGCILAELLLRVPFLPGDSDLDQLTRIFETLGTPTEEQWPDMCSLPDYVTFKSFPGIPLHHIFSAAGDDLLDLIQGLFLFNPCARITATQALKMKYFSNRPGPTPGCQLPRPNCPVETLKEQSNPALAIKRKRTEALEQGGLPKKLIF
Sequence of CDK7/cyclin H/MAT1 complex (P51946 whole entry partner, species assumed): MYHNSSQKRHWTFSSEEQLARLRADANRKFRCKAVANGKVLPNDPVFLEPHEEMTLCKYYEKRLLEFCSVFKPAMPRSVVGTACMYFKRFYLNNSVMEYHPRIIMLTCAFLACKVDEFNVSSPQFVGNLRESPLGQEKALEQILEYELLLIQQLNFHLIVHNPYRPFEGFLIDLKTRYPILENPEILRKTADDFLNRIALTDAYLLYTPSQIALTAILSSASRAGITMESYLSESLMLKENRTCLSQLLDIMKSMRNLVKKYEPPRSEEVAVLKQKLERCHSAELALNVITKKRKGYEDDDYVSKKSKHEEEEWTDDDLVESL
Sequence of CDK7/cyclin H/MAT1 complex (P51948 whole entry partner, species assumed): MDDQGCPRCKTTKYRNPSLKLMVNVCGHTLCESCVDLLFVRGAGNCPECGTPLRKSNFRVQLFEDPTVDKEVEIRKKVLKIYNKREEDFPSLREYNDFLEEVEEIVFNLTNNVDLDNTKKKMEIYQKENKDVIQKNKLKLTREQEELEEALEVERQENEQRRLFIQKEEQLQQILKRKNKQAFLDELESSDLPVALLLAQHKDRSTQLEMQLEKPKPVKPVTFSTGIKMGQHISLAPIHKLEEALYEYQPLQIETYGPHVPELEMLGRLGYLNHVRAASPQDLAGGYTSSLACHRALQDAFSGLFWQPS
Sequence of CDK9/CyclinT1 (P50750 whole entry, species assumed): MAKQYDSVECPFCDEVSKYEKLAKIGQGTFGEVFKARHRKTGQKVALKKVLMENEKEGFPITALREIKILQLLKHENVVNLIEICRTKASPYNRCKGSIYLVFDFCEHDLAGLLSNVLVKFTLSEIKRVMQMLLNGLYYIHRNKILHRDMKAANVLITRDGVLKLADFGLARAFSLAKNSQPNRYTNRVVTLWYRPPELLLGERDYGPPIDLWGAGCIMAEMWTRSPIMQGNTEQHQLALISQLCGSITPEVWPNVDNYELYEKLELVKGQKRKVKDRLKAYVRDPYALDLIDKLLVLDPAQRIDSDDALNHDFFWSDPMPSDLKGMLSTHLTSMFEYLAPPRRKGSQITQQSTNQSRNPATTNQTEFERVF
Sequence of CDK9/CyclinT1 (O60563 whole entry partner, species assumed): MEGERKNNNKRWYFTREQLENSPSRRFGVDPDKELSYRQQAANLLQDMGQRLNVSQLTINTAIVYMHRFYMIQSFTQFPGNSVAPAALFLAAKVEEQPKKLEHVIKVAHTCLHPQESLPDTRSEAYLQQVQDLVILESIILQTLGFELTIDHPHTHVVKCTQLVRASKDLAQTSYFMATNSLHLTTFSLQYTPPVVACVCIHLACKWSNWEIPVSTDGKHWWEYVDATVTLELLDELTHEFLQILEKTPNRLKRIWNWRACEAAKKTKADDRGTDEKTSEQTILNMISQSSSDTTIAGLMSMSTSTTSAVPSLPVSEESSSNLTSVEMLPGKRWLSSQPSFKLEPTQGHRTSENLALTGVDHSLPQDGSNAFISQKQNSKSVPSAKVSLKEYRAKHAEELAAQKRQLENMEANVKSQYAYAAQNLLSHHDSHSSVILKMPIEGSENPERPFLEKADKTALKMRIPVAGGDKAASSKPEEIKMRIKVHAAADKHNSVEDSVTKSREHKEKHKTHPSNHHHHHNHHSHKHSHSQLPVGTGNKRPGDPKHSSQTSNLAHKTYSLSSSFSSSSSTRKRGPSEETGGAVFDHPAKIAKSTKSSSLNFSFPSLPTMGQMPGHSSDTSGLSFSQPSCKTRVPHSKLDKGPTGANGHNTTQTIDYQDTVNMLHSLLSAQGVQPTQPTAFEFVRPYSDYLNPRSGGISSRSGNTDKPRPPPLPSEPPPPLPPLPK
Sequence of CDK12(aa686-1082)/cyclin K complex (Q9NYV4 686-1082, species assumed): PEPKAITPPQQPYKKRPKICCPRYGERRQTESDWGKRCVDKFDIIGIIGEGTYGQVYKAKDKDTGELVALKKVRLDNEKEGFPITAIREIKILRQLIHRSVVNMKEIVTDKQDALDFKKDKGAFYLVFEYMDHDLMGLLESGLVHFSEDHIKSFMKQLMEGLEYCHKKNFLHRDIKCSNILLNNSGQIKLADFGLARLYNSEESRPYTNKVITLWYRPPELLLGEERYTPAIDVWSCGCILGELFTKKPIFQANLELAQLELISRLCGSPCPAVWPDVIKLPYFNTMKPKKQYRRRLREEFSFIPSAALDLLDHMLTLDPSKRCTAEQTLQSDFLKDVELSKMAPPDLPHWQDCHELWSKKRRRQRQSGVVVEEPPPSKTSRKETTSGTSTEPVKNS
Sequence of CDK12(aa686-1082)/cyclin K complex (O75909 whole entry partner, species assumed, the tested form may be a part): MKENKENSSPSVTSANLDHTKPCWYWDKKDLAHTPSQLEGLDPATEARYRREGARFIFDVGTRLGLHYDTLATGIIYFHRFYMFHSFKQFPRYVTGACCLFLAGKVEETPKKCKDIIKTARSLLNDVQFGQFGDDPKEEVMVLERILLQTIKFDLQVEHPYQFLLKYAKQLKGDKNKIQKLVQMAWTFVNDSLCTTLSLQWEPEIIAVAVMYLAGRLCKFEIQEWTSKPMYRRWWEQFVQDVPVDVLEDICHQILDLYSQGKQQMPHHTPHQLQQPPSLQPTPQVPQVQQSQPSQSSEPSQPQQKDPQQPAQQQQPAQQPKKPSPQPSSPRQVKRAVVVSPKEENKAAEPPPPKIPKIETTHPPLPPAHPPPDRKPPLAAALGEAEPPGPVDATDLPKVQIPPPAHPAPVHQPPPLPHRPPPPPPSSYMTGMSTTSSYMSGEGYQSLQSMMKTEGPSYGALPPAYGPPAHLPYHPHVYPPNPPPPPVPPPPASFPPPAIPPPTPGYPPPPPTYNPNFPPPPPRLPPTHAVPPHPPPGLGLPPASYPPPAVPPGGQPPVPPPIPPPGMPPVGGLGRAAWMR

Regarding `FC(F)(F)c1cnc(N[C@H]2CCCNC2)nc1-c1c[nH]c2nc(N3CC4(CCOC4)C3)ccc12` [Compound 11, (S)-4-(6-(6-oxa-2-azaspiro[3.4]octan-2-yl)-1H-pyrrolo[2,3-b]pyridin-3-yl)-N-(piperidin-3-yl)-5-(trifluoromethyl)pyrimidine-2-amine], the 50% inhibitory concentration (IC50) in assay [1] stood at 27.8 nM; at CDK9/CyclinT1, 4230 nM; on CDK2/cyclin E1 complex, 6450 nM; with HCC70 cells (Homo sapiens, HCC70, 72 h), 48 nM; in the assay with A2780 cells (Homo sapiens, A2780, 72 h) it was 41.2 nM; in assay [2] it was 1950 nM.

With `FC(F)(F)c1cnc(N[C@H]2CCCNC2)nc1-c1c[nH]c2nc(N3CCCC4(CCOC4)C3)ccc12` (stereo partly drawn) [Compound 7, 4-(6-(2-oxa-7-azaspiro[4.5]decan-7-yl)-1H-pyrrolo[2,3-b]pyridin-3-yl)-N—((S)-piperidin-3-yl)-5-(trifluoromethyl)pyrimidine-2-amine], the concentration for half-maximal inhibition (IC50) in assay [1] was found to be 24.3 nM; at CDK9/CyclinT1, 3250 nM; at CDK2/cyclin E1 complex, 4500 nM; with HCC70 cells (Homo sapiens, HCC70, 72 h), 28 nM; in the assay with A2780 cells (Homo sapiens, A2780, 72 h), 21.9 nM; in assay [2], 2060 nM.

As for `FC(F)(F)c1cnc(N[C@H]2CCCNC2)nc1-c1c[nH]c2nc(C3=CCCCO3)ccc12` [Compound 109, (S)-4-(6-(3,4-dihydropyran-6-yl)-1H-pyrrol[2,3-b]pyridin-3-yl)-N-(piperidin-3-yl)-5-(trifluoromethyl)pyrimidine-2-amine], the concentration for half-maximal inhibition (IC50) in assay [1] is 5.62 nM; at CDK9/CyclinT1, 2870 nM; at CDK2/cyclin E1 complex, 2150 nM; in the assay with HCC70 cells (Homo sapiens, HCC70, 72 h), 3.98 nM; in the assay with A2780 cells (Homo sapiens, A2780, 72 h), 5.61 nM; in assay [2], 1000 nM.

As for `C[C@H]1COCCN1c1ccc2c(-c3nc(N[C@@H]4CNCC(F)(F)C4)ncc3C(F)(F)F)c[nH]c2n1` [Compound 71, N—((S)-5,5-difluoropiperidin-3-yl)-4-(6-((S)-3-methylmorpholinyl)-1H-pyrrol[2,3-b]pyridin-3-yl)-5-(trifluoromethyl)pyrimidine-2-amine], the IC50 in assay [1] was 31.7 nM; on CDK9/CyclinT1, > 50000 nM; on CDK2/cyclin E1 complex, 9300 nM; with HCC70 cells, 390 nM; in the assay with A2780 cells, 547 nM; in assay [2], 6680 nM.

`FC(F)(F)c1cnc(N[C@H]2CCCNC2)nc1-c1c[nH]c2nc(N3CC4(CCCOC4)C3)ccc12` [Compound 17, (S)-4-(6-(6-oxa-2-azaspiro[3.5]nonan-2-yl)-1H-pyrrolo[2,3-b]pyridin-3-yl)-N-(piperidin-3-yl)-5-(trifluoromethyl)pyrimidine-2-amine]: the half-inhibitory concentration (IC50) in assay [1] came to 20 nM; on CDK9/CyclinT1, 4250 nM; at CDK2/cyclin E1 complex it was 5480 nM; in the assay with HCC70 cells (Homo sapiens, HCC70, 72 h), 102 nM; in the assay on A2780 cells (Homo sapiens, A2780, 72 h), 212 nM; in assay [2], 1630 nM.

In the case of `FC(F)(F)c1cnc(N[C@H]2CCCNC2)nc1-c1c[nH]c2nc(N3CC4(COC4)C3)ccc12` [Compound 14, (S)-4-(6-(2-oxa-6-azaspiro[3.3]heptan-6-yl)-1H-pyrrolo[2,3-b]pyridin-3-yl)-N-(piperidin-3-yl)-5-(trifluoromethyl)pyrimidine-2-amine], the 50% inhibitory concentration (IC50) in assay [1] stood at 7.11 nM; at CDK9/CyclinT1, 1670 nM; at CDK2/cyclin E1 complex, 3290 nM; in the assay with HCC70 cells (Homo sapiens, HCC70, 72 h), 24 nM; with A2780 cells (Homo sapiens, A2780, 72 h) it was 11 nM; in assay [2], 555 nM.

`FC(F)(F)c1cnc(N[C@H]2CCCNC2)nc1-c1c[nH]c2nc(N3C4COCC3C4)ccc12` [Compound 103, 4-(6-(3-oxo-6-azabicyclo[3.1.1]heptan-6-yl)-1H-pyrrol[2,3-b]pyridin-3-yl)-N—((S)-piperidin-3-yl)-5-(trifluoromethyl)pyrimidine-2-amine formate]: the IC50 in assay [1] came to 7.26 nM; on CDK9/CyclinT1 it was 3680 nM; at CDK2/cyclin E1 complex, 2830 nM; with HCC70 cells (Homo sapiens, HCC70, 72 h) it was 22.3 nM; in the assay on A2780 cells (Homo sapiens, A2780, 72 h), 18.2 nM; in assay [2], 1390 nM.

As to `CC1(C#N)CN(c2ccc3c(-c4nc(N[C@H]5CCCNC5)ncc4C(F)(F)F)c[nH]c3n2)C1` [Compound 21, (S)-3-methyl-1-(3-(2-(piperidine-3-amino)-5-(trifluoromethyl)pyrimidin-4-yl)-1H-pyrrolo[2,3-b]pyridin-6-yl)azetidine-3-formonitrile], the IC50 in assay [1] was determined as 8.81 nM; on CDK9/CyclinT1, 2980 nM; at CDK2/cyclin E1 complex it was 4330 nM; with HCC70 cells (Homo sapiens, HCC70, 72 h), 27.8 nM; with A2780 cells (Homo sapiens, A2780, 72 h) it was 19 nM; in assay [2] it was 818 nM.

As for `CC[C@H]1COCCN1c1ccc2c(-c3nc(N[C@H]4CCCNC4)ncc3C(F)(F)F)c[nH]c2n1` [Compound 104, 4-(6-((S)-3-ethylmorpholinyl)-1H-pyrrol[2,3-b]pyridin-3-yl)-N—((S)-piperidin-3-yl)-5-(trifluoromethyl)pyrimidine-2-amine formate], the half-inhibitory concentration (IC50) came out at 5.85 nM in assay [1]; 2750 nM on CDK9/CyclinT1; 1550 nM at CDK2/cyclin E1 complex; 4.97 nM in the assay on HCC70 cells (Homo sapiens, HCC70, 72 h); 5.37 nM with A2780 cells (Homo sapiens, A2780, 72 h); 773 nM in assay [2].

`CP(C)(=O)c1ccc2c(-c3nc(N[C@H]4CCCNC4)ncc3C(F)(F)F)c[nH]c2n1` [Compound 114, (S)-dimethyl(3-(2-(piperidine-3-amino)-5-(trifluoromethyl)pyrimidin-4-yl)-1H-pyrrolo[2,3-b]pyridin-6-yl)phosphine oxide formate]: the half-maximal inhibitory concentration (IC50) is 6.73 nM in assay [1]; 2470 nM on CDK9/CyclinT1; 1720 nM at CDK2/cyclin E1 complex; 18.1 nM in the assay with HCC70 cells (Homo sapiens, HCC70, 72 h); 17.6 nM in the assay on A2780 cells (Homo sapiens, A2780, 72 h); 1210 nM in assay [2].

For orientation: IC50 means the concentration that gives 50% inhibition.

The record behind these values is patent US20240132489A1, “AROMATIC HETEROCYCLIC COMPOUND, PHARMACEUTICAL COMPOSITION, AND USE THEREOF” (GT APEIRON THERAPEUTICS LIMITED, priority 2020, published 2024).
